From patent US10219516B2, “Molecules having pesticidal utility, and intermediates, compositions, and processes, related thereto” (priority 2015, dated 2019)

What was measured:
Type in all cases: in vivo
[1] = tested on: Beet Armyworm (Spodoptera exigua, LAPHEG); assay: Bioassay on Beet Armyworm (BAW), 128-well diet tray assay; conditions: Beet Armyworm, 128-well diet tray assay, read-out: BAW rating
Procedure, shortened: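 Percent mortality, averaged across eight replicate wells, was scored after five to seven days at 25° C. under a 14:10 light-dark cycle. Each well's diet carried 50 μg/cm^2 of the dried test molecule and held one to five second instar larvae.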

[2] = tested on: Yellow Fever Mosquito (Aedes aegypti, AEDSAE); assay: Bioassay on Yellow Fever Mosquito (YFM), 96-well plate larval assay; conditions: Yellow Fever Mosquito, 96-well plate larval assay
Procedure, shortened: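 Each well was scored for mortality after 3 days at room temperature under a non-evaporative lid. Test molecules came from DMSO masters (4000 ppm stock) diluted with water/acetone 90:10 and dispensed into six replicate plates, which were then infested with roughly 1-day-old larvae in liver-powder water.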

[3] = tested on: Cabbage Looper (Trichoplusia ni, TRIPNI); assay: Bioassay on Cabbage Looper (CL), 128-well diet tray assay; conditions: Trichoplusia ni; Cabbage Looper, 128-well diet tray assay; read-out: CL rating
Procedure, shortened: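 Test molecule is dissolved in 90:10 acetone-water and applied at 50 μg/cm^2 onto artificial diet, then dried. One to five second-instar larvae go into each of eight wells. Trays, sealed but vented, stay at 25° C., 14:10 light-dark, five to seven days, after which mortality is averaged.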

| Structure (SMILES) | pest or weed control at 50 µg/cm2 [1] [%] | YFM rating [2] | pest or weed control at 50 µg/cm2 [3] [%] |
| --- | --- | --- | --- |
| O=C(Nc1nc2c(Cl)cccc2s1)c1cc(NC(=O)C2C(c3cc(Cl)cc(Cl)c3)C2(Cl)Cl)ccc1Cl (stereo not drawn) [F443, 2-Chloro-N-(4-chlorobenzo[d]thiazol-2-yl)-5-(trans)-2,2-dichloro-3-(3,5-dichlorophenyl)cyclopropane-1-carboxamido)benzamide] | 50 to 100 | B (More than 0-Less than 80) | 50 to 100 |
| O=C(Nc1nc2ccc(F)cc2s1)c1cc(NC(=O)C2C(c3cc(Cl)cc(Cl)c3)C2(Cl)Cl)ccc1Cl (stereo not drawn) [F445, 2-Chloro-5-(trans)-2,2-dichloro-3-(3,5-dichlorophenyl)cyclopropane-1-carboxamido)-N-(6-fluorobenzo[d]thiazol-2-yl)benzamide] | 50 to 100 | B (More than 0-Less than 80) | 50 to 100 |
| O=C(Nc1nc2ccccc2o1)c1cc(NC(=O)C2C(c3cc(Cl)cc(Cl)c3)C2(Cl)Cl)ccc1Cl (stereo not drawn) [F447, N-(Benzo[d]oxazol-2-yl)-2-chloro-5-(trans)-2,2-dichloro-3-(3,5-dichlorophenyl)cyclopropane-1-carboxamido)benzamide] | 50 to 100 | A (80-100) | 50 to 100 |
| Cn1nc(NC(=O)c2cc(NC(=O)C3C(c4cc(Cl)cc(Cl)c4)C3(Cl)Cl)ccc2Cl)c2c(F)cccc21 (stereo not drawn) [F449, 2-Chloro-5-(trans)-2,2-dichloro-3-(3,5-dichlorophenyl)cyclopropane-1-carboxamido)-N-(4-fluoro-1-methyl-1H-indazol-3-yl)benzamide] | 50 to 100 | A (80-100) | 50 to 100 |
| O=C(Nc1ccc2ncoc2c1)c1cc(NC(=O)C2C(c3cc(Cl)cc(Cl)c3)C2(Cl)Cl)ccc1Cl (stereo not drawn) [F450, N-(Benzo[d]oxazol-6-yl)-2-chloro-5-(trans)-2,2-dichloro-3-(3,5-dichlorophenyl)cyclopropane-1-carboxamido)benzamide] | 50 to 100 | A (80-100) | 50 to 100 |
| O=C(Nc1cc2ocnc2cc1F)c1cc(NC(=O)C2C(c3cc(Cl)cc(Cl)c3)C2(Cl)Cl)ccc1Cl (stereo not drawn) [F453, 2-Chloro-5-(trans)-2,2-dichloro-3-(3,5-dichlorophenyl)cyclopropane-1-carboxamido)-N-(5-fluorobenzo[d]oxazol-6-yl)benzamide] | 50 to 100 | A (80-100) | 50 to 100 |
| Cc1cc2cc(NC(=O)c3cc(NC(=O)C4C(c5cc(Cl)cc(Cl)c5)C4(Cl)Cl)ccc3Cl)ccc2[nH]1 (stereo not drawn) [F454, 2-Chloro-5-(trans)-2,2-dichloro-3-(3,5-dichlorophenyl)cyclopropane-1-carboxamido)-N-(2-methyl-1H-indol-5-yl)benzamide] | 50 to 100 | A (80-100) | 50 to 100 |
| Cc1nc2cc(NC(=O)c3cc(NC(=O)C4C(c5cc(Cl)cc(Cl)c5)C4(Cl)Cl)ccc3Cl)ccc2s1 (stereo not drawn) [F455, 2-Chloro-5-(trans)-2,2-dichloro-3-(3,5-dichlorophenyl)cyclopropane-1-carboxamido)-N-(2-methylbenzo[d]thiazol-5-yl)benzamide] | 50 to 100 | A (80-100) | 50 to 100 |
| O=C(Nc1ccc2[nH]cnc2c1)c1cc(NC(=O)C2C(c3cc(Cl)cc(Cl)c3)C2(Cl)Cl)ccc1Cl (stereo not drawn) [F456, N-(1H-Benzo[d]imidazol-5-yl)-2-chloro-5-(trans)-2,2-dichloro-3-(3,5-dichlorophenyl)cyclopropane-1-carboxamido)benzamide] | 50 to 100 | B (More than 0-Less than 80) | 50 to 100 |
| Cn1ccc2cc(NC(=O)c3cc(NC(=O)C4C(c5cc(Cl)cc(Cl)c5)C4(Cl)Cl)ccc3Cl)ccc21 (stereo not drawn) [F457, 2-Chloro-5-(trans)-2,2-dichloro-3-(3,5-dichlorophenyl)cyclopropane-1-carboxamido)-N-(1-methyl-1H-indol-5-yl)benzamide] | 50 to 100 | A (80-100) | 50 to 100 |
| O=C(Nc1ccc2nccn2c1)c1cc(NC(=O)C2C(c3cc(Cl)cc(Cl)c3)C2(Cl)Cl)ccc1Cl (stereo not drawn) [F475, 2-Chloro-5-(trans)-2,2-dichloro-3-(3,5-dichlorophenyl)cyclopropane-1-carboxamido)-N-(imidazo[1,2-a]pyridin-6-yl)benzamide] | 50 to 100 | A (80-100) | 50 to 100 |
| C/S(=N\C#N)c1ccc(NC(=O)c2cc(NC(=O)C3C(c4cc(Cl)cc(Cl)c4)C3(Cl)Cl)ccc2Cl)cc1 (stereo not drawn) [F495, trans-2-chloro-N-(4-(N-cyano-S-methylsulfinimidoyl)phenyl)-5-(2,2-dichloro-3-(3,5-dichlorophenyl)cyclopropane-1-carboxamido)benzamide] | 50 to 100 | A (80-100) | 50 to 100 |
| CN1Cc2ccc(NC(=O)c3cc(NC(=O)C4C(c5cc(Cl)cc(Cl)c5)C4(Cl)Cl)ccc3Cl)cc2C1 (stereo not drawn) [F498, 2-Chloro-5-(trans)-2,2-dichloro-3-(3,5-dichlorophenyl)cyclopropane-1-carboxamido)-N-(2-methylisoindolin-5-yl)benzamide] | 50 to 100 | A (80-100) | 50 to 100 |
| CS(=O)(=NC#N)c1ccc(NC(=O)c2cc(NC(=O)C3C(c4cc(Cl)cc(Cl)c4)C3(Cl)Cl)ccc2Cl)cc1 (stereo not drawn) [F502, trans-2-chloro-N-(4-(N-cyano-S-methylsulfonimidoyl)phenyl)-5-(2,2-dichloro-3-(3,5-dichlorophenyl)cyclopropane-1-carboxamido)benzamide] | 50 to 100 | A (80-100) | 50 to 100 |
| Cc1cc(/N=C/c2ccc(Cl)cc2)ccc1NC(=O)c1cc(NC(=O)C2C(c3cc(Cl)cc(Cl)c3)C2(Cl)Cl)ccc1Cl (stereo not drawn) [F510] | 50 to 100 | A (80-100) | 50 to 100 |
| O=C(Nc1ncc(F)c(NCc2ccccc2)c1F)c1cc(NC(=O)[C@H]2[C@H](c3cc(Cl)cc(Cl)c3)C2(Cl)Cl)ccc1Cl [F524, N-(4-(Benzylamino)-3,5-difluoropyridin-2-yl)-2-chloro-5-((1R,3R)-2,2-dichloro-3-(3,5-dichlorophenyl)cyclopropane-1-carboxamido)benzamide] | 50 to 100 | A (80-100) | 50 to 100 |
| O=C(Nc1cncc(NO)c1)c1cc(NC(=O)[C@H]2[C@H](c3cc(Cl)cc(Cl)c3)C2(Cl)Cl)ccc1Cl [F525, 2-Chloro-5-((1R,3R)-2,2-dichloro-3-(3,5-dichlorophenyl)cyclopropane-1-carboxamido)-N-(5-(hydroxyamino)pyridin-3-yl)benzamide] | 50 to 100 | A (80-100) | 50 to 100 |
| O=C(Nc1cncc(NO)c1)c1cc(NC(=O)[C@H]2[C@H](c3ccc(Cl)c(Cl)c3)C2(Cl)Cl)ccc1Cl [F526, 2-Chloro-5-((1R,3R)-2,2-dichloro-3-(3,4-dichlorophenyl)cyclopropane-1-carboxamido)-N-(5-(hydroxyamino)pyridin-3-yl)benzamide] | 50 to 100 | A (80-100) | 50 to 100 |
| O=C(Nc1ccc(F)cc1F)c1cc(NC(=O)[C@@H]2[C@@H](c3ccc(F)c(Cl)c3)C2(Cl)Cl)ccc1Cl [F534, 2-Chloro-5-((1S,3S)-2,2-dichloro-3-(3-chloro-4-fluorophenyl)cyclopropane-1-carboxamido)-N-(2,4-difluorophenyl)benzamide] | 50 to 100 | A (80-100) | 50 to 100 |
| N#Cc1cc(F)ccc1NC(=O)c1cc(NC(=O)[C@H]2[C@H](c3cc(Cl)cc(Cl)c3)C2(Cl)Cl)ccc1Cl [F535, 2-Chloro-N-(2-cyano-4-fluorophenyl)-5-((1R,3R)-2,2-dichloro-3-(3,5-dichlorophenyl)cyclopropane-1-carboxamido)benzamide] | 50 to 100 | A (80-100) | 50 to 100 |
| N#Cc1cc(F)ccc1NC(=O)c1cc(NC(=O)[C@@H]2[C@@H](c3cc(Cl)cc(Cl)c3)C2(Cl)Cl)ccc1Cl [F536, 2-Chloro-N-(2-cyano-4-fluorophenyl)-5-((1S,3S)-2,2-dichloro-3-(3,5-dichlorophenyl)cyclopropane-1-carboxamido)benzamide] | 50 to 100 | A (80-100) | 50 to 100 |
| COc1c(F)cc(C2C(C(=O)Nc3ccc(Cl)c(C(=O)Nc4ccc(F)cc4F)c3)C2(Cl)Cl)cc1F (stereo not drawn) [F537, 2-Chloro-5-trans-(2,2-dichloro-3-(3,5-difluoro-4-methoxyphenyl)cyclopropane-1-carboxamido)-N-(2,4-difluorophenyl)benzamide] | 50 to 100 | A (80-100) | 50 to 100 |
| O=C(Nc1ccc(F)cc1[N+](=O)[O-])c1cc(NC(=O)[C@H]2[C@H](c3cc(Cl)cc(Cl)c3)C2(Cl)Cl)ccc1Cl [F554, 2-Chloro-5-((1R,3R)-2,2-dichloro-3-(3,5-dichlorophenyl)cyclopropane-1-carboxamido)-N-(4-fluoro-2-nitrophenyl)benzamide] | 50 to 100 | A (80-100) | 50 to 100 |
